{
  "source": "ChEMBL document CHEMBL5260850",
  "about": "“The exploration of aza-quinolines as hematopoietic prostaglandin D synthase (H-PGDS) inhibitors with low brain exposure” (Bioorg Med Chem, 2020)",
  "key": {"Cytochrome P450 3A4": {"molecular_target": "Cytochrome P450 3A4 (Homo sapiens, UniProt P08684)", "sequence (P08684 whole entry)": "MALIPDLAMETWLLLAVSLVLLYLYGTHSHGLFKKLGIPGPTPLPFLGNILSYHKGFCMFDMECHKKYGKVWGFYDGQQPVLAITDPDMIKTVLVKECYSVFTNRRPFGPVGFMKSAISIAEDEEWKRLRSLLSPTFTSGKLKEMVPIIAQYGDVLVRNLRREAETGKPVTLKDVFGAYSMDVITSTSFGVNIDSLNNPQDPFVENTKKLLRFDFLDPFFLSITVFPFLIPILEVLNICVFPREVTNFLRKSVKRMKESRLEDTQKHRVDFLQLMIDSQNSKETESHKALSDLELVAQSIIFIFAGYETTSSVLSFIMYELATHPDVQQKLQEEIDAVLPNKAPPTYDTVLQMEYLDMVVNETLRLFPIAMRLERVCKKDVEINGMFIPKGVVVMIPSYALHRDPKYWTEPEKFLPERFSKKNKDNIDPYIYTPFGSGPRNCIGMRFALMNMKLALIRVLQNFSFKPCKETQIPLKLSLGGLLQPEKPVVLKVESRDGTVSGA", "assay": "Inhibition of CYP3A4 (unknown origin)", "assay_type": "ADME"}, "[1]": {"assay": "Cmax in Wistar Han rat at 30 mg/kg/day, po QD for 7 days", "assay_type": "ADME, organism-based", "design": "time 7 day, dose 30 mg/kg/day, route po", "conditions": "in vivo"}, "[2]": {"assay": "Genotoxicity in Salmonella typhimurium in absence of metabolic activation by Ames test", "assay_type": "toxicity", "conditions": "salmonella enterica subsp. enterica serovar typhimurium"}, "[3]": {"molecular_target": "Cannabinoid receptor 1 (Homo sapiens) (UniProt P21554)", "sequence (P21554 whole entry)": "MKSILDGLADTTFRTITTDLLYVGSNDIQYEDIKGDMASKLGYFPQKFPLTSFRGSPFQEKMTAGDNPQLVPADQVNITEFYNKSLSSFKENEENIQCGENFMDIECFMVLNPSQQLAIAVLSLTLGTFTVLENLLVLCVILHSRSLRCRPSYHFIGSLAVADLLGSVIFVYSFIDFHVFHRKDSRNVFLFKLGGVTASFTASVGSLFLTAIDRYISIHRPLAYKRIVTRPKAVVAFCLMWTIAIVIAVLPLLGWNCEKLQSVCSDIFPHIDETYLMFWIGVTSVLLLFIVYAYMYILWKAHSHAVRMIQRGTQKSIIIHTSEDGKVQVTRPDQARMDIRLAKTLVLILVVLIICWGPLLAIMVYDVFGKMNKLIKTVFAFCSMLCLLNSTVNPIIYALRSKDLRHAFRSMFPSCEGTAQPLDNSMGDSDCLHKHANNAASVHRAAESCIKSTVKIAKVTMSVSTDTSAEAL", "conditions": "dose <= 10000.0 nM", "description": "Inhibition of CB1 receptor (unknown origin) upto 10000 nM"}, "[4]": {"assay": "Selectivity ratio of EC50 for inhibition of H-PGDS in rat RBL cells assessed as reduction in A23187-induced PGD2 production to EC50 for anti-inflammatory activity against po dosed C57BL6/N mouse assessed as reduction in LPS-induced PGD2 level in plasma"}, "[5]": {"assay": "Toxicity in Wistar Han rat assessed as tolerance at 30 mg/kg/day, po administered QD for 7 days", "assay_type": "organism-based", "conditions": "in vivo, 168 h, time 7 day"}, "[6]": {"assay": "Toxicity in dog assessed as tolerance upto 30 mg/kg/day, po QD for 4 days", "assay_type": "organism-based, Canis lupus familiaris", "conditions": "in vivo, 96 h, time 4 day"}, "[7]": {"assay": "Volume of distribution at steady state in mouse at 1 mg/kg, iv", "assay_type": "ADME, organism-based", "conditions": "in vivo, read-out: Vdss"}, "[8]": {"assay": "Solubility of the compound in FaSSIF at pH 6.5 measured after 4 hrs by HPLC-UV analysis", "assay_type": "ADME"}, "[9]": {"molecular_target": "Sodium-dependent serotonin transporter (Homo sapiens) (UniProt P31645)", "conditions": "dose <= 10000.0 nM", "description": "Inhibition of SERT (unknown origin) upto 10000 nM"}, "Mus musculus [10]": {"tested_on": "Mus musculus", "assay": "Anti-inflammatory activity against C57BL/6N mouse assessed as inhibition of muscle function loss by measuring functional recovery of injured limb muscles administered orally for 10 mins prior to unilateral eccentric contraction and QD for 16 days thereafter", "conditions": "384 h, route po, time 16 day"}, "[11]": {"assay": "Toxicity in dog assessed as hemorrhage of zona fasciculata in adrenal gland at 75 mg/kg/day, po QD for 4 days by microscopic analysis", "assay_type": "organism-based, Canis lupus familiaris", "conditions": "in vivo, 96 h, time 4 day"}, "[12]": {"molecular_target": "Histamine H1 receptor (Homo sapiens) (UniProt P35367)", "conditions": "dose <= 10000.0 nM", "description": "Inhibition of histamine H1 receptor (unknown origin) upto 10000 nM"}, "[13]": {"assay": "Toxicity in Wistar Han rat assessed as morphological changes in kidney at 30 mg/kg/day, po administered QD for 7 days by microscopic analysis", "assay_type": "organism-based", "conditions": "in vivo, 168 h, time 7 day"}, "[14]": {"assay": "Toxicity in dog assessed as cytoplasmic alteration in zona fasciculata in adrenal gland at 75 mg/kg/day, po QD for 4 days by microscopic analysis", "assay_type": "organism-based, Canis lupus familiaris", "conditions": "in vivo, 96 h, time 4 day"}, "[15]": {"assay": "Free Cmax in mdx mouse administered orally 10 mins prior to unilateral eccentric contraction and QD for 43 days thereafter", "assay_type": "ADME", "conditions": "in vivo, po, 1032 h, time 43 day"}, "[16]": {"molecular_target": "Amine oxidase [flavin-containing] A (Homo sapiens, UniProt P21397)", "sequence (P21397 whole entry)": "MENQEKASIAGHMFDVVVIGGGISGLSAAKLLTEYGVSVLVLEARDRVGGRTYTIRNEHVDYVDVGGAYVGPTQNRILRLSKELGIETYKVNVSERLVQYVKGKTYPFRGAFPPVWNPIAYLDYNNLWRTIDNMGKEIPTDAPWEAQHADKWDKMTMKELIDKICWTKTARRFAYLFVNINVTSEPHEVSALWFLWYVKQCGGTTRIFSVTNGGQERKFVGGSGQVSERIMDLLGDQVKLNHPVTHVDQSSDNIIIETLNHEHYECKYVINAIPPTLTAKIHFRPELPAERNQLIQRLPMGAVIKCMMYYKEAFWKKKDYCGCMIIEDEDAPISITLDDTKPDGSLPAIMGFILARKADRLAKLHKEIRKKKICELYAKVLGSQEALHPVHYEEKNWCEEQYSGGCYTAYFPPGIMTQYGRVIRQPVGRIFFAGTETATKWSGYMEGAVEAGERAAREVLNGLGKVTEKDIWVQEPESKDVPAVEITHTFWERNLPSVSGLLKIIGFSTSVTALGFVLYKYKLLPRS", "assay": "Inhibition of MAO-A (unknown origin) upto 10000 nM", "conditions": "10 µM"}, "[17]": {"assay": "Toxicity in dog assessed as degeneration of zona glomerulosa in adrenal gland at 75 mg/kg/day, po QD for 4 days by microscopic analysis", "assay_type": "organism-based, Canis lupus familiaris", "conditions": "in vivo, 96 h, time 4 day"}, "[18]": {"molecular_target": "Voltage-dependent L-type calcium channel subunit alpha-1C (Homo sapiens, UniProt Q13936)", "assay": "Inhibition of Cav1.2 channel (unknown origin) upto 10000 nM", "conditions": "10 µM"}, "[19]": {"molecular_target": "D(2) dopamine receptor (Homo sapiens) (UniProt P14416)", "sequence (P14416 whole entry)": "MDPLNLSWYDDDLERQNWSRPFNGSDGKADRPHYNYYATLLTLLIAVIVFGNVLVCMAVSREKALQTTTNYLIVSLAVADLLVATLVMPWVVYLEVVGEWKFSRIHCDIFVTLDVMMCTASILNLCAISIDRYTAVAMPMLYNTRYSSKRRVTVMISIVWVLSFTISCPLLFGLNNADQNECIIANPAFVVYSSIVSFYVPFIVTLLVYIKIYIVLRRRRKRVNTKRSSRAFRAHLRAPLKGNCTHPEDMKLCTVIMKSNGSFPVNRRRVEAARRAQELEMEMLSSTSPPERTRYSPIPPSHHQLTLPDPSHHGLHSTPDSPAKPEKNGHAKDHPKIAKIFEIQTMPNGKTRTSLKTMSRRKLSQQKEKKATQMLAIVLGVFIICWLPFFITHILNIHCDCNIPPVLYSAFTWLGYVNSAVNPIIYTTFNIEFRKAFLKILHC", "conditions": "dose <= 10000.0 nM", "description": "Inhibition of dopamine D2 receptor (unknown origin) upto 10000 nM"}, "[20]": {"molecular_target": "GABA-A receptor; anion channel (Homo sapiens) (UniProt P14867+P47870+P18507+P28472+P48169+Q99928+Q9UN88+P34903+O00591+O14764+Q8N1C3+P18505+P78334+P47869+P31644+Q16445)", "conditions": "dose <= 10000.0 nM", "description": "Inhibition of GABAA receptor (unknown origin) upto 10000 nM"}, "[21]": {"molecular_target": "Potassium voltage-gated channel subfamily KQT member 1 (Homo sapiens, UniProt P51787)", "assay": "Inhibition of Kv7.1 channel (unknown origin) upto 10000 nM", "conditions": "10 µM"}, "[22]": {"assay": "CNS toxicity in Wistar Han rat at 10 to 100 mg/kg/day, po QD for 7 days", "assay_type": "organism-based", "conditions": "in vivo, 168 h, dose 10-100 mg/kg/day, time 7 day"}, "[23]": {"molecular_target": "5-hydroxytryptamine receptor 3A (Homo sapiens) (UniProt P46098)", "sequence (P46098 whole entry)": "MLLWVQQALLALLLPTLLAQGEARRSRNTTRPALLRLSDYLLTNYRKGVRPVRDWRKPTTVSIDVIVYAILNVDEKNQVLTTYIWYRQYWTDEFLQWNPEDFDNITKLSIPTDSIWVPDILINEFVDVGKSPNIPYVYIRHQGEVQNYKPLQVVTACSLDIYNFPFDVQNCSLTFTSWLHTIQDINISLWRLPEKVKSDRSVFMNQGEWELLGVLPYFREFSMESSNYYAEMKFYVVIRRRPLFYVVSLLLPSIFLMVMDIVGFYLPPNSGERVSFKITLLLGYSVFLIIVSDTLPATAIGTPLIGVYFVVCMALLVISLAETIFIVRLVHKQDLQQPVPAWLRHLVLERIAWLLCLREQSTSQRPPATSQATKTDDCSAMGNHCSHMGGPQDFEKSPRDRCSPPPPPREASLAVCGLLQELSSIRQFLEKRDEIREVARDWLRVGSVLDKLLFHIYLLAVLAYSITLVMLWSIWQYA", "conditions": "dose <= 10000.0 nM", "description": "Inhibition of 5-HT3 receptor (unknown origin) upto 10000 nM"}, "[24]": {"assay": "Cmax in dog at 10 mg/kg/day, po QD for 4 days", "assay_type": "ADME, organism-based, Canis lupus familiaris", "design": "dose 10 mg/kg/day, time 4 day, route po", "conditions": "in vivo"}, "[25]": {"molecular_target": "Muscarinic acetylcholine receptor M2 (Homo sapiens) (UniProt P08172)", "sequence (P08172 whole entry)": "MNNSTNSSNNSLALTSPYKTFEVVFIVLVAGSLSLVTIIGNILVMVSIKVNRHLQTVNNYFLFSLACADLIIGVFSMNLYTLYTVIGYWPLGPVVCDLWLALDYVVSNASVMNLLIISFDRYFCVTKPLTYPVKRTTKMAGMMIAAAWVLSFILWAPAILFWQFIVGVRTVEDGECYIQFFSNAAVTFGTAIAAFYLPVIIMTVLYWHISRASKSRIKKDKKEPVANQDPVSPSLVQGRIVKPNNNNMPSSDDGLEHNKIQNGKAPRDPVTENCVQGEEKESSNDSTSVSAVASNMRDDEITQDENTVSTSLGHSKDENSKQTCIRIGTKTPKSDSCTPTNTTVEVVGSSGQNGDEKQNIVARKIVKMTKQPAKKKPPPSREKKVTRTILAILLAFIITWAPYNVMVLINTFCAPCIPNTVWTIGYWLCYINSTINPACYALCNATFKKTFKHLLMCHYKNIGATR", "conditions": "dose <= 10000.0 nM", "description": "Inhibition of muscarinic M2 receptor (unknown origin) upto 10000 nM"}, "[26]": {"molecular_target": "5-hydroxytryptamine receptor 2C (Homo sapiens) (UniProt P28335)", "sequence (P28335 whole entry)": "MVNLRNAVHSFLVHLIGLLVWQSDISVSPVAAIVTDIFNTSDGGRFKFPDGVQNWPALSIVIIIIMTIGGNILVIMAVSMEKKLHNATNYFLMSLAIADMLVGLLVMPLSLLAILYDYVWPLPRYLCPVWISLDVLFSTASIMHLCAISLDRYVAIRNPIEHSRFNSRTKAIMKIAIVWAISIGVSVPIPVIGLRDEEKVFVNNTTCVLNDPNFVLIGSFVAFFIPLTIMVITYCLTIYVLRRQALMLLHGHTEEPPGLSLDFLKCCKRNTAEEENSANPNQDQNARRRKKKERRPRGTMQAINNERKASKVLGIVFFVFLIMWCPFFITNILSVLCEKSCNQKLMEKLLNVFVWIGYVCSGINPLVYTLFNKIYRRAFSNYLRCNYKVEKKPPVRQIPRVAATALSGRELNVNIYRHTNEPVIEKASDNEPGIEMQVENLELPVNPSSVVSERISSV", "conditions": "dose <= 10000.0 nM", "description": "Inhibition of 5-HT2C receptor (unknown origin) upto 10000 nM"}, "Bile salt export pump": {"molecular_target": "Bile salt export pump (Homo sapiens, UniProt O95342)", "assay": "Inhibition of BSEP (unknown origin) upto 10000 nM", "conditions": "10 µM"}, "[27]": {"molecular_target": "cGMP-inhibited 3',5'-cyclic phosphodiesterase 3A (Homo sapiens) (UniProt Q14432)", "conditions": "dose <= 10000.0 nM", "description": "Inhibition of PDE3A (unknown origin) upto 10000 nM"}, "[28]": {"assay": "Free AUC (0 to last) in mdx mouse administered orally 10 mins prior to unilateral eccentric contraction and QD for 43 days thereafter", "assay_type": "ADME", "conditions": "in vivo, po, 1032 h, time 43 day"}, "[29]": {"assay": "AUC in dog at 30 mg/kg/day, po QD for 4 days", "assay_type": "ADME, organism-based, Canis lupus familiaris", "design": "dose 30 mg/kg/day, time 4 day, route po", "conditions": "in vivo"}, "[30]": {"assay": "Volume of distribution at steady state in rat at 0.4 mg/kg, iv", "assay_type": "ADME, organism-based", "conditions": "in vivo, read-out: Vdss"}, "[31]": {"assay": "Selectivity ratio of EC50 for inhibition of H-PGDS in rat RBL cells assessed as reduction in A23187-induced PGD2 production to EC50 for anti-inflammatory activity against po dosed C57BL/6J mouse assessed as reduction in compound 48/80-induced PGD2 release into peritoneal lavage fluid"}, "Albumin": {"molecular_target": "Albumin (Homo sapiens, UniProt P02768)", "sequence (P02768 whole entry)": "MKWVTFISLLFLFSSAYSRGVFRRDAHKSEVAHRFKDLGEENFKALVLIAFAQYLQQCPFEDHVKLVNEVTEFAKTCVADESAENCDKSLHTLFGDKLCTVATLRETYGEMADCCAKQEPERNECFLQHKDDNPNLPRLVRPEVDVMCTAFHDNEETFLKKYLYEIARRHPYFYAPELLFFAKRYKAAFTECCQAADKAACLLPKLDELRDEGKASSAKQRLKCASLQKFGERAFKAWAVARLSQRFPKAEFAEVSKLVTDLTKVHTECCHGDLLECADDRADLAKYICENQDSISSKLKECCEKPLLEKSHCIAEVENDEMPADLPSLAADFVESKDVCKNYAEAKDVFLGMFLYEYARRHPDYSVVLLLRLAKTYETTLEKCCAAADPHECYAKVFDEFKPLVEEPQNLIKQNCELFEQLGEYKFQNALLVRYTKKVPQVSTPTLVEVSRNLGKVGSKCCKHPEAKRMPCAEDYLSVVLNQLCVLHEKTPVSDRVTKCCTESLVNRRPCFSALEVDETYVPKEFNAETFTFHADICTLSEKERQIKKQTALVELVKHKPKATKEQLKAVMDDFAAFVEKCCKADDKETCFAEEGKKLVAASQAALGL", "assay": "Protein binding in human serum albumin by HPLC analysis", "assay_type": "ADME, cell-free", "conditions": "read-out: PB (converted)"}, "[32]": {"molecular_target": "Prostaglandin G/H synthase 2 (Homo sapiens) (UniProt P35354)", "conditions": "dose <= 10000.0 nM", "description": "Inhibition of COX-2 (unknown origin) upto 10000 nM"}, "[33]": {"assay": "Toxicity in dog assessed as decrease in body temperature at 75 mg/kg/day, po QD for 4 days", "assay_type": "organism-based, Canis lupus familiaris", "conditions": "in vivo, 96 h, time 4 day"}, "Mus musculus [34]": {"species": "Mus musculus", "assay": "animal or person", "conditions": "C57BL/6J, Mast cell, po, 1.117 h"}, "[35]": {"molecular_target": "5-hydroxytryptamine receptor 2A (Homo sapiens) (UniProt P28223)", "sequence (P28223 whole entry)": "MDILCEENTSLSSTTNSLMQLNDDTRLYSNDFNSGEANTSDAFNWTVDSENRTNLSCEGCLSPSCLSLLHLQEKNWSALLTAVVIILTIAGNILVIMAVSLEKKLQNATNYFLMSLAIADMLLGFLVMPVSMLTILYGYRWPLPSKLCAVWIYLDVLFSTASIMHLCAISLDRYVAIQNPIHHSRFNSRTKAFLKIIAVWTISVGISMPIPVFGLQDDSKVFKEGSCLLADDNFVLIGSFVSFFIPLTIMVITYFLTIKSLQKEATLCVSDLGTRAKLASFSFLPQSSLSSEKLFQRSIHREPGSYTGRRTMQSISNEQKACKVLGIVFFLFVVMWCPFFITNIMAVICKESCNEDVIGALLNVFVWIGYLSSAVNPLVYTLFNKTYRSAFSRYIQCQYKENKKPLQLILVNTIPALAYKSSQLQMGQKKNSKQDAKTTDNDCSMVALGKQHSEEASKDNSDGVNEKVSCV", "conditions": "dose <= 10000.0 nM", "description": "Inhibition of 5-HT2A receptor (unknown origin) upto 10000 nM"}, "[36]": {"molecular_target": "Hematopoietic prostaglandin D synthase (Homo sapiens, UniProt O60760)", "sequence (O60760 whole entry)": "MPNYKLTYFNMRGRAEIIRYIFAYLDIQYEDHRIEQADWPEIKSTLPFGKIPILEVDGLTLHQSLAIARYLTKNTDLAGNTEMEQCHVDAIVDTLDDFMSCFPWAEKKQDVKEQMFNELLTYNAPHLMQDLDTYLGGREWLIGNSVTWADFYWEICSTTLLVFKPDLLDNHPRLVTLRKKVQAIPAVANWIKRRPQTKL", "assay": "Inhibition of human H-PGDS expressed in Escherichia coli BL21 DE3 cells assessed as reduction in PGD2 production using PGH2 as substrate by RapidFire High Throughput Mass spectrometry"}, "[37]": {"assay": "Ratio of drug level in brain to blood in mouse at 1 mg/kg, iv", "assay_type": "ADME, organism-based", "conditions": "read-out: BBR"}, "[38]": {"assay": "Toxicity in C57BL/6N mouse assessed as seizures administered orally for 10 mins prior to unilateral eccentric contraction and QD for 43 days thereafter", "conditions": "in vivo, po, 1032 h, time 43 day"}},
  "note": "Activity calls are given as the source filed them. The rule behind the calls is not given here.",
  "data": [
    {"smiles": "CC(C)(O)[C@H]1CC[C@H](NC(=O)c2cnc3nc(C4CC4)ccc3c2)CC1", "values": [
      {"measurement": "IC50", "setting": "Cytochrome P450 3A4", "result": "> 100000", "unit": "nM"},
      {"measurement": "Cmax", "setting": "[1]", "result": 24000, "unit": "ng/mL"},
      {"measurement": "Activity", "setting": "[2]", "result": "Non-Toxic"},
      {"measurement": "inhibition", "setting": "[3]", "result": "inactive"},
      {"measurement": "Ratio EC50", "setting": "[4]", "result": 10},
      {"measurement": "Activity", "setting": "[5]", "result": "Non-Toxic"},
      {"measurement": "Activity", "setting": "[6]", "result": "Non-Toxic"},
      {"measurement": "Vd", "setting": "[7]", "result": 1.6, "unit": "L/kg"},
      {"measurement": "solubility at 4 h", "setting": "[8]", "result": 140, "unit": "µg/mL"},
      {"measurement": "inhibition", "setting": "[9]", "result": "inactive"},
      {"measurement": "ED50", "setting": "Mus musculus [10]", "result": 3, "unit": "mg/kg"},
      {"measurement": "Activity", "setting": "[11]", "result": "Toxic"},
      {"measurement": "inhibition", "setting": "[12]", "result": "inactive"},
      {"measurement": "Activity", "setting": "[13]", "result": "Non-Toxic"},
      {"measurement": "Activity", "setting": "[14]", "result": "Toxic"},
      {"measurement": "fCmax", "setting": "[15]", "result": 49, "unit": "ng/mL"},
      {"measurement": "inhibition (INH)", "setting": "[16]", "result": "Not Active"},
      {"measurement": "Activity", "setting": "[17]", "result": "Toxic"},
      {"measurement": "inhibition (INH)", "setting": "[18]", "result": "Not Active"},
      {"measurement": "inhibition", "setting": "[19]", "result": "inactive"},
      {"measurement": "inhibition", "setting": "[20]", "result": "inactive"},
      {"measurement": "inhibition (INH)", "setting": "[21]", "result": "Not Active"},
      {"measurement": "Activity", "setting": "[22]", "result": "Non-Toxic"},
      {"measurement": "inhibition", "setting": "[23]", "result": "inactive"},
      {"measurement": "Cmax", "setting": "[24]", "result": 13000, "unit": "ng/mL"},
      {"measurement": "inhibition", "setting": "[25]", "result": "inactive"},
      {"measurement": "inhibition", "setting": "[26]", "result": "inactive"},
      {"measurement": "inhibition (INH)", "setting": "Bile salt export pump", "result": "Not Active"},
      {"measurement": "inhibition", "setting": "[27]", "result": "inactive"},
      {"measurement": "fAUClast", "setting": "[28]", "result": 0.2, "unit": "µg·h/mL"},
      {"measurement": "AUC at 96 h", "setting": "[29]", "result": 430, "unit": "µg·h/mL"},
      {"measurement": "Vd", "setting": "[30]", "result": 1.6, "unit": "L/kg"},
      {"measurement": "Ratio EC50", "setting": "[31]", "result": 10},
      {"measurement": "fraction unbound", "setting": "Albumin", "result": 0.2},
      {"measurement": "inhibition", "setting": "[32]", "result": "inactive"},
      {"measurement": "Activity", "setting": "[33]", "result": "Toxic"},
      {"measurement": "ED50", "setting": "Mus musculus [34]", "result": 0.009, "unit": "mg/kg"},
      {"measurement": "inhibition", "setting": "[35]", "result": "inactive"},
      {"measurement": "IC50", "setting": "[36]", "result": 9.4, "unit": "nM"},
      {"measurement": "Kp", "setting": "[37]", "result": 0.06},
      {"measurement": "Activity", "setting": "[38]", "result": "Non-Toxic"}
    ]}
  ]
}
